Values after ≈ are worked out from the molar mass of the structure shown.
Key:
[1] = In vivo half life period was determined in murine septicemia at dose of 50 mg/kg; type: ADME, organism-based; parameters: dose 50 mg/kg; conditions: mouse
[2] = In vivo area under curve (AUC) was determined in murine septicemia at dose of 50 mg/kg; type: ADME, organism-based; parameters: dose 50 mg/kg; conditions: mouse
[3] = In vivo volume distribution (Vd) was determined in murine septicemia at dose of 50 mg/kg; type: ADME, organism-based; parameters: dose 50 mg/kg; conditions: mouse
[4] = In vivo total clearance was determined in murine septicemia at dose of 50 mg/kg; type: ADME, organism-based; parameters: dose 50 mg/kg; conditions: mouse, read-out: CLtotal (converted)
[5] = In vivo Tmax was determined in murine septicemia at dose of 50 mg/kg; type: ADME, organism-based; parameters: dose 50 mg/kg; conditions: mouse
[6] = In vivo Cmax in mice at dose of 50 mg/kg; type: ADME, organism-based; parameters: dose 50 mg/kg; conditions: mouse
Enterococcus faecalis = experiment: Antibacterial activity against Enterococcus faecalis ATCC 49452; type: functional
Staphylococcus aureus [7] = experiment: Antibacterial activity against methicillin susceptible Staphylococcus aureus ATCC 29213 (MSSA ); type: functional
Staphylococcus aureus [8] = experiment: Antibacterial activity against methicillin resistant Staphylococcus aureus ATCC 43300 (MRSA); type: functional
Enterococcus faecium = experiment: Antibacterial activity against Enterococcus faecium ATCC 6569; type: functional
Mus musculus = experiment: Antibacterial activity was determined by protection from death of mice infected by methicillin resistant Staphylococcus aureus (MRSA) upon sc administration of compound after 4 hr of post infection; type: functional; conditions: read-out: PD50
[9] = In vivo Cmax in mice at dose of 100 mg/kg; type: ADME, organism-based; parameters: dose 100 mg/kg; conditions: mouse
[10] = In vivo Tmax was determined in murine septicemia at dose of 100 mg/kg; type: ADME, organism-based; parameters: dose 100 mg/kg; conditions: mouse
[11] = In vivo total clearance was determined in murine septicemia at dose of 100 mg/kg; type: ADME, organism-based; parameters: dose 100 mg/kg; conditions: mouse, read-out: CLtotal (converted)
[12] = In vivo volume distribution (Vd) was determined in murine septicemia at dose of 100 mg/kg; type: ADME, organism-based; parameters: dose 100 mg/kg; conditions: mouse
[13] = In vivo area under curve (AUC) was determined in murine septicemia at dose of 100 mg/kg; type: ADME, organism-based; parameters: dose 100 mg/kg; conditions: mouse

Row | SMILES | half-life [1] | AUC [2] | Vd [3] | clearance [4] | Tmax [5] | Cmax [6] | MIC (Enterococcus faecalis) | MIC (Staphylococcus aureus [7]) | MIC (Staphylococcus aureus [8]) | MIC (Enterococcus faecium) | ED50 (Mus musculus) | Cmax [9] | Tmax [10] | clearance [11] | Vd [12] | AUC [13]
1 | CCCCCCCCCC(=O)N[C@@H](Cc1c[nH]c2ccccc12)C(=O)N[C@H](CC(N)=O)C(=O)N[C@@H](CC(=O)O)C(=O)N[C@@H]1C(=O)NCC(=O)N[C@@H](CCCNC(=O)[C@@H](N)CCCCN)C(=O)N[C@@H](CC(=O)O)C(=O)N[C@H](C)C(=O)N[C@@H](CC(=O)O)C(=O)NCC(=O)N[C@H](CO)C(=O)N[C@@H]([C@H](C)CC(=O)O)C(=O)N[C@@H](CC(=O)c2ccccc2N)C(=O)O[C@@H]1C | 1.2 h | 589 µg·h/mL | 0.147 L/kg | 1.42 mL/min/kg | 0.5 h | 297 µg/mL | – | – | – | – | – | – | – | – | – | –
2 | CCCCCCCCCC(=O)N[C@@H](Cc1c[nH]c2ccccc12)C(=O)N[C@H](CC(N)=O)C(=O)N[C@@H](CC(=O)O)C(=O)N[C@@H]1C(=O)NCC(=O)N[C@@H](CCCNC(=O)c2c(N)ccc3ccccc23)C(=O)N[C@@H](CC(=O)O)C(=O)N[C@H](C)C(=O)N[C@@H](CC(=O)O)C(=O)NCC(=O)N[C@H](CO)C(=O)N[C@@H]([C@H](C)CC(=O)O)C(=O)N[C@@H](CC(=O)c2ccccc2N)C(=O)O[C@@H]1C [listing 1 of 2 here] | 5.6 h | 2820 µg·h/mL | 0.143 L/kg | 0.3 mL/min/kg | 4 h | 230 µg/mL | – | – | – | – | – | – | – | – | – | –
3 | CCCCCCCCCC(=O)N[C@@H](Cc1c[nH]c2ccccc12)C(=O)N[C@H](CC(N)=O)C(=O)N[C@@H](CC(=O)O)C(=O)N[C@@H]1C(=O)NCC(=O)N[C@@H](CCCNC(=O)c2c(N)ccc3ccccc23)C(=O)N[C@@H](CC(=O)O)C(=O)N[C@H](C)C(=O)N[C@@H](CC(=O)O)C(=O)NCC(=O)N[C@H](CO)C(=O)N[C@@H]([C@H](C)CC(=O)O)C(=O)N[C@@H](CC(=O)c2ccccc2N)C(=O)O[C@@H]1C [listing 2 of 2 here] | – | – | – | – | – | – | 6.25 µg/mL (≈ 3.49 µM) | 0.78 µg/mL (≈ 0.436 µM) | 0.78 µg/mL (≈ 0.436 µM) | 6.25 µg/mL (≈ 3.49 µM) | 2.1 mg/kg | – | – | – | – | –
4 | CCCCCCCCCC(=O)N[C@@H](Cc1c[nH]c2ccccc12)C(=O)N[C@H](CC(N)=O)C(=O)N[C@@H](CC(=O)O)C(=O)N[C@@H]1C(=O)NCC(=O)N[C@@H](CCCNC(=N)N)C(=O)N[C@@H](CC(=O)O)C(=O)N[C@H](C)C(=O)N[C@@H](CC(=O)O)C(=O)NCC(=O)N[C@H](CO)C(=O)N[C@@H]([C@H](C)CC(=O)O)C(=O)N[C@@H](CC(=O)c2ccccc2N)C(=O)O[C@@H]1C [listing 1 of 2 here] | 2.1 h | 766 µg·h/mL | 0.198 L/kg | 1.08 mL/min/kg | 0.5 h | 254 µg/mL | – | – | – | – | – | – | – | – | – | –
5 | CCCCCCCCCC(=O)N[C@@H](Cc1c[nH]c2ccccc12)C(=O)N[C@H](CC(N)=O)C(=O)N[C@@H](CC(=O)O)C(=O)N[C@@H]1C(=O)NCC(=O)N[C@@H](CCCNC(=N)N)C(=O)N[C@@H](CC(=O)O)C(=O)N[C@H](C)C(=O)N[C@@H](CC(=O)O)C(=O)NCC(=O)N[C@H](CO)C(=O)N[C@@H]([C@H](C)CC(=O)O)C(=O)N[C@@H](CC(=O)c2ccccc2N)C(=O)O[C@@H]1C [listing 2 of 2 here] | – | – | – | – | – | – | 12.5 µg/mL (≈ 7.52 µM) | 0.78 µg/mL (≈ 0.469 µM) | 0.78 µg/mL (≈ 0.469 µM) | 6.25 µg/mL (≈ 3.76 µM) | 0.17 mg/kg | – | – | – | – | –
6 | CCCCCCCCCC(=O)N[C@@H](Cc1c[nH]c2ccccc12)C(=O)N[C@H](CC(N)=O)C(=O)N[C@@H](CC(=O)O)C(=O)N[C@@H]1C(=O)NCC(=O)N[C@@H](CCCNC(=O)C2Cc3c([nH]c4ccccc34)CN2)C(=O)N[C@@H](CC(=O)O)C(=O)N[C@H](C)C(=O)N[C@@H](CC(=O)O)C(=O)NCC(=O)N[C@H](CO)C(=O)N[C@@H]([C@H](C)CC(=O)O)C(=O)N[C@@H](CC(=O)c2ccccc2N)C(=O)O[C@@H]1C (some centres undefined) | > 6 h | – | – | – | 6 h | 418 µg/mL | – | – | – | – | – | – | – | – | – | –
7 | CCCCCCCCCC(=O)N[C@@H](Cc1c[nH]c2ccccc12)C(=O)N[C@H](CC(N)=O)C(=O)N[C@@H](CC(=O)O)C(=O)N[C@@H]1C(=O)NCC(=O)N[C@@H](CCCNC(=O)c2ccccc2N)C(=O)N[C@@H](CC(=O)O)C(=O)N[C@H](C)C(=O)N[C@@H](CC(=O)O)C(=O)NCC(=O)N[C@H](CO)C(=O)N[C@@H]([C@H](C)CC(=O)O)C(=O)N[C@@H](CC(=O)c2ccccc2N)C(=O)O[C@@H]1C [listing 1 of 2 here] | 2.4 h | – | – | – | – | – | – | – | – | – | – | 464 µg/mL | 0.5 h | 1.1 mL/min/kg | 0.23 L/kg | 1500 µg·h/mL
8 | CCCCCCCCCC(=O)N[C@@H](Cc1c[nH]c2ccccc12)C(=O)N[C@H](CC(N)=O)C(=O)N[C@@H](CC(=O)O)C(=O)N[C@@H]1C(=O)NCC(=O)N[C@@H](CCCNC(=O)c2ccccc2N)C(=O)N[C@@H](CC(=O)O)C(=O)N[C@H](C)C(=O)N[C@@H](CC(=O)O)C(=O)NCC(=O)N[C@H](CO)C(=O)N[C@@H]([C@H](C)CC(=O)O)C(=O)N[C@@H](CC(=O)c2ccccc2N)C(=O)O[C@@H]1C [listing 2 of 2 here] | – | – | – | – | – | – | 12.5 µg/mL (≈ 7.18 µM) | 0.78 µg/mL (≈ 0.448 µM) | 1.56 µg/mL (≈ 0.897 µM) | 6.25 µg/mL (≈ 3.59 µM) | 1.1 mg/kg | – | – | – | – | –
9 | CCCCCCCCCC(=O)N[C@@H](Cc1c[nH]c2ccccc12)C(=O)N[C@H](CC(N)=O)C(=O)N[C@@H](CC(=O)O)C(=O)N[C@@H]1C(=O)NCC(=O)N[C@@H](CCCNC(=O)C(N)CCc2c[nH]c3ccccc23)C(=O)N[C@@H](CC(=O)O)C(=O)N[C@H](C)C(=O)N[C@@H](CC(=O)O)C(=O)NCC(=O)N[C@H](CO)C(=O)N[C@@H]([C@H](C)CC(=O)O)C(=O)N[C@@H](CC(=O)c2ccccc2N)C(=O)O[C@@H]1C (some centres undefined) | 2.8 h | 936 µg·h/mL | 0.216 L/kg | 0.883 mL/min/kg | 1 h | 258 µg/mL | – | – | – | – | – | – | – | – | – | –
10 | CCCCCCCCCC(=O)N[C@@H](Cc1c[nH]c2ccccc12)C(=O)N[C@H](CC(N)=O)C(=O)N[C@@H](CC(=O)O)C(=O)N[C@@H]1C(=O)NCC(=O)N[C@@H](CCCN)C(=O)N[C@@H](CC(=O)O)C(=O)N[C@H](C)C(=O)N[C@@H](CC(=O)O)C(=O)NCC(=O)N[C@H](CO)C(=O)N[C@@H]([C@H](C)CC(=O)O)C(=O)N[C@@H](CC(=O)c2ccccc2N)C(=O)O[C@@H]1C | 1.7 h | 489 µg·h/mL | 0.251 L/kg | 1.7 mL/min/kg | 0.5 h | 214 µg/mL | 1.56 µg/mL (≈ 0.963 µM) | 0.78 µg/mL (≈ 0.481 µM) | 0.39 µg/mL (≈ 0.241 µM) | 1.56 µg/mL (≈ 0.963 µM) | 0.22 mg/kg | – | – | – | – | –

Reference: ChEMBL document CHEMBL1136454, “Synthesis and biological activity of N-Acylated ornithine analogues of daptomycin” (Bioorg Med Chem Lett, 2003)
